# Results reported in ChEMBL document CHEMBL3885881, “DrugMatrix”.
# Species: Rattus norvegicus
# Assay: DrugMatrix - Regimen: Daily Repeat
# Assay type: toxicity, organism-based, Sprague-Dawley
# Set-up: regimen Daily Repeat, gender Male, age 6-8 weeks
# Settings: in vivo, po, route oral GAVAGE, vehicle 100 % SALINE; for ABSOLUTE BASOPHIL / ABSOLUTE EOSINOPHIL / ABSOLUTE LYMPHOCYTE / ABSOLUTE MONOCYTE / ABSOLUTE SEGMENTED NEUTROPHIL / BASOPHIL / EOSINOPHIL / ERYTHROCYTE COUNT / HEMATOCRIT / HEMOGLOBIN / LEUKOCYTE COUNT / LYMPHOCYTE / MEAN CORPUSCULAR HEMOGLOBIN / MEAN CORPUSCULAR HEMOGLOBIN CONCENTRATION / MEAN CORPUSCULAR VOLUME / MONOCYTE / NEUTROPHIL / NUCLEATED RED BLOOD CELLS / PLATELET COUNT: tissue Blood; for ALANINE AMINOTRANSFERASE / ALBUMIN / ALKALINE PHOSPHATASE / ASPARTATE AMINOTRANSFERASE / BLOOD UREA NITROGEN / CARBON DIOXIDE / CHLORIDE / CHOLESTEROL / CREATINE PHOSPHOKINASE / CREATININE / GLUCOSE / LACTATE DEHYDROGENASE / LIPASE / PHOSPHORUS / POTASSIUM / SODIUM / TOTAL BILIRUBIN / TOTAL PROTEIN / URIC ACID: tissue Plasma
# [1] = 0 mg/kg, 72 h, dose level Control, time 3 day
# [2] = 0 mg/kg, 120 h, dose level Control, time 5 day
# [3] = 46 mg/kg, 72 h, dose level Low, time 3 day
smiles,measurement,setting,value
COc1ccc2cc(CC(=O)O)ccc2c1,ABSOLUTE BASOPHIL,[1],0 CELLS/uL
same,ABSOLUTE EOSINOPHIL,[1],26.83 CELLS/uL
same,ABSOLUTE LYMPHOCYTE,[1],12748.5 CELLS/uL
same,ABSOLUTE MONOCYTE,[1],140.5 CELLS/uL
same,ABSOLUTE SEGMENTED NEUTROPHIL,[1],1067.5 CELLS/uL
same,BASOPHIL,[1],0%
same,EOSINOPHIL,[1],0.17%
same,ERYTHROCYTE COUNT,[1],5.51 x10E6/uL
same,HEMATOCRIT,[1],34.75%
same,HEMOGLOBIN,[1],13.65 G/DL
same,LEUKOCYTE COUNT,[1],13.98 x10E3/uL
same,LYMPHOCYTE,[1],91.17%
same,MEAN CORPUSCULAR HEMOGLOBIN,[1],24.8 pg
same,MEAN CORPUSCULAR HEMOGLOBIN CONCENTRATION,[1],39.33 G/DL
same,MEAN CORPUSCULAR VOLUME,[1],63.03 fL
same,MONOCYTE,[1],1%
same,NEUTROPHIL,[1],7.67%
same,NUCLEATED RED BLOOD CELLS,[1],0 /100WBC
same,PLATELET COUNT,[1],1278.17 x10E3/uL
same,ALANINE AMINOTRANSFERASE,[1],52.17 u/L
same,ALBUMIN,[1],4.07 G/DL
same,ALKALINE PHOSPHATASE,[1],416.83 u/L
same,ASPARTATE AMINOTRANSFERASE,[1],109.67 u/L
same,BLOOD UREA NITROGEN,[1],16.83 mg/dL
same,CARBON DIOXIDE,[1],28 mmol/L
same,CHLORIDE,[1],100.83 MEQ/L
same,CHOLESTEROL,[1],69 mg/dL
same,CREATINE PHOSPHOKINASE,[1],1155.67 u/L
same,CREATININE,[1],0.32 mg/dL
same,GLUCOSE,[1],186.5 mg/dL
same,LACTATE DEHYDROGENASE,[1],345.67 u/L
same,LIPASE,[1],12.17 u/L
same,PHOSPHORUS,[1],12.45 mg/dL
same,POTASSIUM,[1],6.85 MEQ/L
same,SODIUM,[1],141.4 MEQ/L
same,TOTAL BILIRUBIN,[1],0.23 mg/dL
same,TOTAL PROTEIN,[1],5.63 G/DL
same,URIC ACID,[1],2.22 mg/dL
same,ABSOLUTE BASOPHIL,[2],0 CELLS/uL
same,ABSOLUTE EOSINOPHIL,[2],114.33 CELLS/uL
same,ABSOLUTE LYMPHOCYTE,[2],11655.33 CELLS/uL
same,ABSOLUTE MONOCYTE,[2],142 CELLS/uL
same,ABSOLUTE SEGMENTED NEUTROPHIL,[2],1055 CELLS/uL
same,BASOPHIL,[2],0%
same,EOSINOPHIL,[2],0.83%
same,ERYTHROCYTE COUNT,[2],5.68 x10E6/uL
same,HEMATOCRIT,[2],35.92%
same,HEMOGLOBIN,[2],14.13 G/DL
same,LEUKOCYTE COUNT,[2],12.97 x10E3/uL
same,LYMPHOCYTE,[2],90%
same,MEAN CORPUSCULAR HEMOGLOBIN,[2],24.93 pg
same,MEAN CORPUSCULAR HEMOGLOBIN CONCENTRATION,[2],39.37 G/DL
same,MEAN CORPUSCULAR VOLUME,[2],63.33 fL
same,MONOCYTE,[2],1.17%
same,NEUTROPHIL,[2],8%
same,NUCLEATED RED BLOOD CELLS,[2],0 /100WBC
same,PLATELET COUNT,[2],1234 x10E3/uL
same,ALANINE AMINOTRANSFERASE,[2],43.5 u/L
same,ALBUMIN,[2],4.23 G/DL
same,ALKALINE PHOSPHATASE,[2],331.5 u/L
same,ASPARTATE AMINOTRANSFERASE,[2],80.83 u/L
same,BLOOD UREA NITROGEN,[2],17.67 mg/dL
same,CARBON DIOXIDE,[2],31.83 mmol/L
same,CHLORIDE,[2],100.83 MEQ/L
same,CHOLESTEROL,[2],69.5 mg/dL
same,CREATINE PHOSPHOKINASE,[2],320 u/L
same,CREATININE,[2],0.26 mg/dL
same,GLUCOSE,[2],157.33 mg/dL
same,LACTATE DEHYDROGENASE,[2],364.67 u/L
same,LIPASE,[2],9.83 u/L
same,PHOSPHORUS,[2],11.05 mg/dL
same,POTASSIUM,[2],5.83 MEQ/L
same,SODIUM,[2],141.07 MEQ/L
same,TOTAL BILIRUBIN,[2],0.22 mg/dL
same,TOTAL PROTEIN,[2],5.92 G/DL
same,URIC ACID,[2],1.23 mg/dL
same,ABSOLUTE BASOPHIL,[3],0 CELLS/uL
same,ABSOLUTE EOSINOPHIL,[3],49.33 CELLS/uL
same,ABSOLUTE LYMPHOCYTE,[3],12249.33 CELLS/uL
same,ABSOLUTE MONOCYTE,[3],224.67 CELLS/uL
same,ABSOLUTE SEGMENTED NEUTROPHIL,[3],1176.67 CELLS/uL
same,BASOPHIL,[3],0%
same,EOSINOPHIL,[3],0.33%
same,ERYTHROCYTE COUNT,[3],5.54 x10E6/uL
same,HEMATOCRIT,[3],33.9%
same,HEMOGLOBIN,[3],13.13 G/DL
same,LEUKOCYTE COUNT,[3],13.7 x10E3/uL
same,LYMPHOCYTE,[3],89.67%
same,MEAN CORPUSCULAR HEMOGLOBIN,[3],23.73 pg
same,MEAN CORPUSCULAR HEMOGLOBIN CONCENTRATION,[3],38.77 G/DL
same,MEAN CORPUSCULAR VOLUME,[3],61.23 fL
same,MONOCYTE,[3],1.67%
same,NEUTROPHIL,[3],8.33%
same,NUCLEATED RED BLOOD CELLS,[3],0 /100WBC
same,PLATELET COUNT,[3],1182.67 x10E3/uL
same,ALANINE AMINOTRANSFERASE,[3],61.33 u/L
same,ALBUMIN,[3],4.13 G/DL
same,ALKALINE PHOSPHATASE,[3],328.67 u/L
same,ASPARTATE AMINOTRANSFERASE,[3],85.67 u/L
same,BLOOD UREA NITROGEN,[3],16 mg/dL
same,CARBON DIOXIDE,[3],34 mmol/L
same,CHLORIDE,[3],102.33 MEQ/L
same,CHOLESTEROL,[3],75.67 mg/dL
same,CREATINE PHOSPHOKINASE,[3],347.33 u/L
same,CREATININE,[3],0.4 mg/dL
same,GLUCOSE,[3],150.67 mg/dL
same,LACTATE DEHYDROGENASE,[3],245.33 u/L
same,LIPASE,[3],9 u/L
same,PHOSPHORUS,[3],11.63 mg/dL
same,POTASSIUM,[3],6.77 MEQ/L
same,SODIUM,[3],143.43 MEQ/L
same,TOTAL BILIRUBIN,[3],0.13 mg/dL
same,TOTAL PROTEIN,[3],5.33 G/DL
same,URIC ACID,[3],1.3 mg/dL
